# Measured values: patent US20060122276A1, “Agent for inhibiting membrane virus reproduction, method for the production thereof, pharmaceutical composition and method for inhibiting viral infections” (priority 2003, published 2006)
# Where two headings read alike, the source gives them in different places.
# Key:
# Hep 2 cells = test: Apoptosis signs in Hep 2 cells (DNA fragmentation, Fas-antigen mRNA forms); type: cell-based, human; conditions: for Redistribution of soluble and membrane Fas-antigen mRNA forms indicative of Fas-dependent apoptosis: 10, 50, 100 μg/ml
# Excerpt: A reduction in the intensity of protein profiles was observed on the second day and most dramatically on the seventh day at the studied concentrations of the preparation as compared with control. This can be indicative of a reduction in the number of cells because of inhibition of the mitotic activity of cells in the presence of the preparation. On the 7th day of the action of the preparation a reduction in the number of DNA compared with control was observed. Checking for the presence of DNA fragmentation has shown its absence, i.e., apoptosis manifestations were not detected.
# For establishing the influence of the preparation on intracellular biosynthetic processes, we have analyzed the synthesis and maturing in the Hep 2 cells of Fas-antigen mRNA. Fas-antigen is a receptor protein of the signal of programmed death of cells—apoptosis—and it can exist in two forms: in membrane form and in soluble form. It has been shown that in the presence of the preparation there occurs redistribution of the alternative forms of the Fas-antigen mRNA, this being indicative of the influence of the preparation on the biosynthetic processes in Hep 2 cells on the transcripton level; however, reconstructions indicative of the feasibility of Fas-dependent apoptosis are absent (FIG. 8).
# [1] = system: herpes simplex virus (HSV-1); test: Antiviral activity with respect to HSV-1 in human embryo fibroblasts (M-21); type: cell-based, type 1, strain L2; conditions: 100 TCD50, 48 hours after the infection
# Excerpt: Herpes simplex virus, type 1, strain L2, replicated in VERO cells was used in the investigation.
# […] acyclovir was used as positive control
# [2] = system: lymphoblastoid human cells MT-4; test: Cytotoxicity on non-infected human lymphoblastoid cells; type: cell-based; conditions: for Cytotoxic action of the preparation on cells: 1, 10 μg/ml and higher (to 100 μg/ml)
# HIV-1 = conditions: for Protection of MT-4 cells against viral cytopathic action of HIV-1: HIV-1 100 TCD50
# Description: Cells Reinoculated humans lymphoblastoid cells MT-4 were used. […] The viability of the cells was determined from the color of a 0.4% solution of trypan blue.
# Retrovir (azidothymidin) produced by GlaxoWellcome (Great Britain) was used as positive control.
# The Antiviral activity of the preparations was investigated on a model of lymphoblastoid cells in a plastic 24-cell plate. The virus dose was 100 TCD50 (50% tissue cytopathic dose). […] The activity of the preparation was determined from the inhibition of the virus-induced cytopathic action (CPA) in the cell cultures and the virus antigen level in the culture fluid by immunoenzymatic analysis.
# [3] = 0.25 μg/ml, HIV-1-infected lymphoblastoid cells, 5th day
# [4] = 0.5 μg/ml, HIV-1-infected lymphoblastoid cells, 5th day
# [5] = 1 μg/ml, 2 hrs of contact, washing off of cells No, 6th day
# [6] = 1 μg/ml, 2 hrs of contact, washing off of cells Yes, 6th day
# [7] = 1.0 μg/ml, HIV-1-infected lymphoblastoid cells, 5th day
# [8] = 1 μg/ml, exposure 1 hr, washing off of cells Yes, 6th day
# [9] = 1 μg/ml, exposure 2 hrs, washing off of cells Yes, 6th day
# [10] = 1 μg/ml, exposure 24 hrs, washing off of cells Yes, 6th day
# [11] = 1 μg/ml, exposure during the entire experiment, washing off of cells No, 6th day
# [12] = 10 μg/ml, 2 hrs of contact, washing off of cells No, 6th day
# [13] = 10 μg/ml, 2 hrs of contact, washing off of cells Yes, 6th day
# [14] = 10 μg/ml, HIV-1-infected lymphoblastoid cells, 5th day
# [15] = 10 μg/ml, exposure 2 hrs (first such line, r25), washing off of cells Yes, 6th day
# [16] = 10 μg/ml, exposure 2 hrs (second such line, r29), washing off of cells Yes, 6th day
# [17] = 10 μg/ml, exposure 24 hrs, washing off of cells Yes, 6th day
# [18] = 10 μg/ml, exposure during the entire experiment, washing off of cells No, 6th day
# [19] = 100 μg/ml, HIV-1-infected lymphoblastoid cells, 5th day
# [20] = preparation 1 hr after infecting, HIV-1
# [21] = preparation 2 hrs before infecting, HIV-1
# [22] = preparation + virus simultaneously, HIV-1
substance,measurement,setting,value
sodium salt of fullerene-polyamino-caproic acid,DNA fragmentation (apoptosis manifestations),Hep 2 cells,not recorded
same,Redistribution of soluble and membrane Fas-antigen mRNA forms indicative of Fas-dependent apoptosis,Hep 2 cells,no redistribution
same,Redistribution of soluble and membrane Fas-antigen mRNA forms indicative of Fas-dependent apoptosis,Hep 2 cells; listed as preparation,absent
same,DNA fragmentation (apoptosis manifestations),Hep 2 cells; listed as preparation,absence
same,Protection of M-21 cells against the cytodestructive action of HSV-1,[1]; 10 μg/ml,full protection
same,Protection of M-21 cells from the cytodestructive action of HSV-1,"[1]; 1.0, 10 and 50 μg/ml, introduced 30 and 60 minutes after the infection",full protection
same,"Viability of cells, %","[2]; 100 μg/ml, non-infected human lymphoblastoid cells (cell control 93)",85%
same,Number of cells in 1 ml × 1000,"[2]; 100 μg/ml, non-infected human lymphoblastoid cells (cell control 966)",866 in 1 ml × 1000
same,Cytotoxic action of the preparation on cells,[2],no cytotoxic action
same,Cytotoxic action of the preparation on cells,[2]; listed as sodium salt of fullerene-polyamino-propanoic acid,not detected
same,"CPE/syncytia, %",HIV-1; [3],50%
same,Number of cells in 1 ml × 1000,HIV-1; [3],1000 in 1 ml × 1000
same,"CPE/syncytia, %",HIV-1; [4],25%
same,Number of cells in 1 ml × 1000,HIV-1; [4],1299 in 1 ml × 1000
same,"CPE/syncytia, +",HIV-1; [5],0 +
same,Number of cells × 10^3 ml,HIV-1; [5],2200 × 10^3 ml
same,"CPE/syncytia, +","HIV-1; 1 μg/ml, 2 hrs of contact, washing off of cells No, 8th day",0 +
same,"CPE/syncytia, +",HIV-1; [6],2.5+
same,Number of cells × 10^3 ml,HIV-1; [6],1700 × 10^3 ml
same,"CPE/syncytia, +","HIV-1; 1 μg/ml, 2 hrs of contact, washing off of cells Yes, 8th day",3.5+
same,Protection of MT-4 cells against viral cytopathic action of HIV-1,HIV-1; 1 μg/ml,full protection
same,Protection of MT-4 cells against viral cytopathic action of HIV-1,"HIV-1; 1 μg/ml, listed as sodium salt of fullerene-polyamino-propanoic acid",Full protection
same,"CPE/syncytia, %",HIV-1; [7],0%
same,Number of cells in 1 ml × 1000,HIV-1; [7],1466 in 1 ml × 1000
same,"CPE/syncytia, +",HIV-1; [8],0.5+
same,Number of cells × 10^3 ml,HIV-1; [8],2000 × 10^3 ml
same,"CPE/syncytia, +","HIV-1; 1 μg/ml, exposure 1 hr, washing off of cells Yes, 8th day",1.5+
same,"CPE/syncytia, +",HIV-1; [9],0.5+
same,Number of cells × 10^3 ml,HIV-1; [9],1700 × 10^3 ml
same,"CPE/syncytia, +","HIV-1; 1 μg/ml, exposure 2 hrs, washing off of cells Yes, 8th day",1+
same,"CPE/syncytia, +",HIV-1; [10],0.1+
same,Number of cells × 10^3 ml,HIV-1; [10],2100 × 10^3 ml
same,"CPE/syncytia, +","HIV-1; 1 μg/ml, exposure 24 hrs, washing off of cells Yes, 8th day",0.5+
same,"CPE/syncytia, +",HIV-1; [11],0 +
same,Number of cells × 10^3 ml,HIV-1; [11],2300 × 10^3 ml
same,"CPE/syncytia, +","HIV-1; 1 μg/ml, exposure during the entire experiment, washing off of cells No, 8th day",0 +
same,"CPE/syncytia, +",HIV-1; [12],0 +
same,Number of cells × 10^3 ml,HIV-1; [12],2600 × 10^3 ml
same,"CPE/syncytia, +","HIV-1; 10 μg/ml, 2 hrs of contact, washing off of cells No, 8th day",0 +
same,"CPE/syncytia, +",HIV-1; [13],1.75+
same,Number of cells × 10^3 ml,HIV-1; [13],1500 × 10^3 ml
same,"CPE/syncytia, +","HIV-1; 10 μg/ml, 2 hrs of contact, washing off of cells Yes, 8th day",3.0+
same,"CPE/syncytia, %",HIV-1; [14],0%
same,Number of cells in 1 ml × 1000,HIV-1; [14],1633 in 1 ml × 1000
same,"CPE/syncytia, +",HIV-1; [15],0 +
same,Number of cells × 10^3 ml,HIV-1; [15],2300 × 10^3 ml
same,"CPE/syncytia, +","HIV-1; 10 μg/ml, exposure 2 hrs (first such line, r25), washing off of cells Yes, 8th day",0 +
same,"CPE/syncytia, +",HIV-1; [16],0 +
same,Number of cells × 10^3 ml,HIV-1; [16],1800 × 10^3 ml
same,"CPE/syncytia, +","HIV-1; 10 μg/ml, exposure 2 hrs (second such line, r29), washing off of cells Yes, 8th day",0 +
same,"CPE/syncytia, +",HIV-1; [17],0 +
same,Number of cells × 10^3 ml,HIV-1; [17],2300 × 10^3 ml
same,"CPE/syncytia, +","HIV-1; 10 μg/ml, exposure 24 hrs, washing off of cells Yes, 8th day",0 +
same,"CPE/syncytia, +",HIV-1; [18],0 +
same,Number of cells × 10^3 ml,HIV-1; [18],2500 × 10^3 ml
same,"CPE/syncytia, +","HIV-1; 10 μg/ml, exposure during the entire experiment, washing off of cells No, 8th day",0 +
same,"CPE/syncytia, %",HIV-1; [19],0%
same,Number of cells in 1 ml × 1000,HIV-1; [19],1500 in 1 ml × 1000
same,"CPE/syncytia, %",HIV-1; [20],0%
same,Number of cells in 1 ml × 1000,HIV-1; [20],1100 in 1 ml × 1000
same,"CPE/syncytia, %",HIV-1; [21],0%
same,Number of cells in 1 ml × 1000,HIV-1; [21],1100 in 1 ml × 1000
same,"CPE/syncytia, %",HIV-1; [22],0%
same,Number of cells in 1 ml × 1000,HIV-1; [22],1100 in 1 ml × 1000
